Assay results published in patent publication US4228292A, “N-Substituted benzothiazolines and benzoxazolines and their use as herbicides and plant growth regulants” (Monsanto Company, priority 1978, dated 1980).

Key:
[1] = system: soybean plants; assay: plant growth regulating activity on soybean plants; type: in vivo, variety Williams
Protocol: A number of soybean plants, variety Williams, were grown from seeds in plastic pots in the greenhouse for a period of one week at which time the plants are thinned to one plant per pot. When the second trifoliate leaf (three weeks) was fully expanded, the plants were treated with a solution of the active ingredient in acetone and water. Aqueous Tween 20 was used as a surfactant.
When the fifth trifoliate leaf (four to five weeks) was fully expanded, the treated plants were compared with the non-treated control plants and the observations recorded.

[2] = system: Wild Buckwheat; assay: pre-emergent herbicidal test; type: in vivo; settings: Q; further: ranges in brackets are in %
Protocol: (§1) The pre-emergent test was conducted as follows:
(§2) A good grade of top soil was placed in aluminum pans and compactd to a depth of 0.95 to 1.27 cm. from the top of the pan. On the top of the soil was placed a predetermined number of seeds or vegetative propagules of various plant species. The soil required to level fill the pans after seeding or adding vegetative propagules was weighed into a pan. A known amount of the herbicidal active ingredient applied in a solvent or as a wettable powder and the soil were thoroughly mixed, and used as a cover layer for prepared pans. After treatment the pans were moved into a greenhouse bench where they were watered from below as needed to give adequate moisture for germination and growth.
(§3) A herbicidal rating code was used to signify the extent of phytotoxicity of each species. The ratings are defined as follows: […]

[3] = system: Crabgrass; assay: pre-emergent herbicidal test; type: in vivo; settings: T; further: ranges in brackets are in %
Protocol: as §1, §2, §3

[4] = system: Soybean; assay: pre-emergent herbicidal test; type: in vivo; settings: L; further: ranges in brackets are in %
Protocol: as §1, §2, §3

[5] = system: Hemp Sesbania; assay: pre-emergent herbicidal test; type: in vivo; settings: R; further: ranges in brackets are in %
Protocol: as §1, §2, §3

[6] = system: Panicum Spp; assay: pre-emergent herbicidal test; type: in vivo; settings: S; further: ranges in brackets are in %
Protocol: as §1, §2, §3

[7] = system: Wheat; assay: pre-emergent herbicidal test; type: in vivo; settings: N; further: ranges in brackets are in %
Protocol: as §1, §2, §3

[8] = system: Rice; assay: pre-emergent herbicidal test; type: in vivo; settings: O; further: ranges in brackets are in %
Protocol: as §1, §2, §3

[9] = system: Sugar Beet; assay: pre-emergent herbicidal test; type: in vivo; settings: M; further: ranges in brackets are in %
Protocol: as §1, §2, §3

[10] = system: Sorghum; assay: pre-emergent herbicidal test; type: in vivo; settings: P; further: ranges in brackets are in %
Protocol: as §1, §2, §3

With `COC(=N)C(C)n1c(=O)sc2cc(Br)ccc21` (stereo not shown) [Compound 34] the “plant growth regulant observations” value ([1]; 0.112 kg/h) was “Leaf alteration of new growth”.

For `COC(=N)Cn1c(=O)sc2cc(Br)ccc21` [Compound 33], the pre-emergent herbicidal rating ([2]; 0.28 kg/h, 2 WAT) was 0 (0-24), the pre-emergent herbicidal rating ([2]; 1.12 kg/h, 2 WAT) was 0 (0-24) and the pre-emergent herbicidal rating ([2]; 5.6 kg/h, 4 WAT) was 1 (25-49). For the same molecule, the pre-emergent herbicidal rating ([3]; 0.28 kg/h, 2 WAT) was 0 (0-24), the pre-emergent herbicidal rating ([3]; 1.12 kg/h, 2 WAT) was 0 (0-24) and the pre-emergent herbicidal rating ([3]; 5.6 kg/h, 4 WAT) was 0 (0-24). The pre-emergent herbicidal rating ([4]; 0.28 kg/h, 2 WAT) was 0 (0-24), the pre-emergent herbicidal rating ([4]; 1.12 kg/h, 2 WAT) was 0 (0-24) and the pre-emergent herbicidal rating ([4]; 5.6 kg/h, 4 WAT) was 1 (25-49). For the same molecule, the pre-emergent herbicidal rating ([5]; 0.28 kg/h, 2 WAT) was 0 (0-24), the pre-emergent herbicidal rating ([5]; 1.12 kg/h, 2 WAT) was 0 (0-24) and the pre-emergent herbicidal rating ([5]; 5.6 kg/h, 4 WAT) was 0 (0-24). The pre-emergent herbicidal rating ([6]; 0.28 kg/h, 2 WAT) was 0 (0-24), the pre-emergent herbicidal rating ([6]; 1.12 kg/h, 2 WAT) was 0 (0-24) and the pre-emergent herbicidal rating ([6]; 5.6 kg/h, 4 WAT) was 0 (0-24). For the same molecule, the pre-emergent herbicidal rating ([7]; 0.28 kg/h, 2 WAT) was 0 (0-24), the pre-emergent herbicidal rating ([7]; 1.12 kg/h, 2 WAT) was 0 (0-24) and the pre-emergent herbicidal rating ([7]; 5.6 kg/h, 4 WAT) was 0 (0-24). For the same molecule, the pre-emergent herbicidal rating ([8]; 0.28 kg/h, 2 WAT) was 0 (0-24), the pre-emergent herbicidal rating ([8]; 1.12 kg/h, 2 WAT) was 0 (0-24) and the pre-emergent herbicidal rating ([8]; 5.6 kg/h, 4 WAT) was 0 (0-24). For the same molecule, the pre-emergent herbicidal rating ([9]; 0.28 kg/h, 2 WAT) was 0 (0-24), the pre-emergent herbicidal rating ([9]; 1.12 kg/h, 2 WAT) was 0 (0-24) and the pre-emergent herbicidal rating ([9]; 5.6 kg/h, 4 WAT) was 1 (25-49). The pre-emergent herbicidal rating ([10]; 0.28 kg/h, 2 WAT) was 0 (0-24), the pre-emergent herbicidal rating ([10]; 1.12 kg/h, 2 WAT) was 0 (0-24) and the pre-emergent herbicidal rating ([10]; 5.6 kg/h, 4 WAT) was 0 (0-24). For the same molecule, the “plant growth regulant observations” value ([1]; 0.112 kg/h) was “Inhibition of dry weight”.

In the case of `COC(=N)Cn1c(=O)oc2ccccc21` [Compound 35], the “plant growth regulant observations” value ([1]; 0.112 kg/h) is reported as “No response” and the “plant growth regulant observations” value ([1]; 0.56 kg/h) is reported as “No response”.

For `COC(=N)CCn1c(=O)sc2cc(Br)ccc21` [Compound 36], the “plant growth regulant observations” value ([1]; 0.112 kg/h) was “Leaf alteration of new growth” and the “plant growth regulant observations” value ([1]; 0.56 kg/h) was “Leaf alteration of new growth”.

In the case of `COC(=N)Cn1c(=O)sc2cc(Br)ccc21` [Compound 20], the “plant growth regulant observations” value ([1]; 0.112 kg/h) is reported as “Leaf alteration of new growth”.
